The assay addresses T1, human α1G T-type channels (Homo sapiens, UniProt O43497).
T1 construct: expressed in transfected cells; host or cells: HEK 293
The experiment in a line: T-type calcium channel block, whole cell patch clamp in HEK cells (α1G). It counts as cell-based. Particulars: HEK cells, patch clamp, mainly non-inactivated protocol; values above 10 μM shown as 10 μM, below 0.30 μM shown as 0.30 μM; read-out: T-type Calcium Channel Block α1G IC50. On the procedure: T-type calcium channel blocking activity was assayed in human embryonic kidney cells, HEK 293, stably transfected with the T-type calcium channel subunits. Briefly, cells were cultured in Dulbecco's modified eagle medium (DMEM) supplemented with 10% fetal bovine serum, 200 U/ml penicillin and 0.2 mg/ml streptomycin at 37° C. with 5% CO2. At 85% confluency cells were split with 0.25% trypsin/1 mM EDTA and plated at 10% confluency on glass coverslips. […] Fresh DMEM was supplied and the cells transferred to 28° C./5% CO2. Cells were incubated for 1 to 2 days prior to whole cell recording.
Standard patch-clamp techniques were employed to identify blockers of T-type currents. Briefly, previously described HEK cell lines stably expressing human α1G, α1H and α1I T-type channels were used for all the recordings (passage #: 4-20, 37° C., 5% CO2). Whole cell patch clamp experiments were performed using an Axopatch 200B amplifier (Axon Instruments, Burlingame, Calif.) linked to a personal computer equipped with pCLAMP software. Data were analyzed using Clampfit (Axon Instruments) and SigmaPlot 4.0 (Jandel Scientific). To obtain T-type currents, plastic dishes containing semi-confluent cells were positioned on the stage of a ZEISS AXIOVERT S100 microscope after replacing the culture medium with external solution (see below). Whole-cell patches were obtained using pipettes (borosilicate glass with filament, O.D.: 1.5 mm, I.D.: 0.86 mm, 10 cm length), fabricated on a SUTTER P-97 puller with resistance values of ˜5 MΩ (see below for internal solution).
In the non-inactivating protocol, the holding potential is set at −110 mV and with a pre-pulse at −100 mV for 1 second prior to the test pulse at −40 mV for 50 ms.
Test compounds were dissolved in external solution, 0.1-0.01% DMSO. After ˜10 min rest, they were applied by gravity close to the cell using a WPI microfil tubing. The “non-inactivated” pre-pulse was used to examine the resting block of a compound. The “inactivated” protocol was employed to study voltage-dependent block. […] Values are shown in μM and values above 10 μM are simply represented as 10 μM.
On the technique in general: In patch-clamp work, channel activity is measured electrically.
T1 sequence (O43497 whole entry): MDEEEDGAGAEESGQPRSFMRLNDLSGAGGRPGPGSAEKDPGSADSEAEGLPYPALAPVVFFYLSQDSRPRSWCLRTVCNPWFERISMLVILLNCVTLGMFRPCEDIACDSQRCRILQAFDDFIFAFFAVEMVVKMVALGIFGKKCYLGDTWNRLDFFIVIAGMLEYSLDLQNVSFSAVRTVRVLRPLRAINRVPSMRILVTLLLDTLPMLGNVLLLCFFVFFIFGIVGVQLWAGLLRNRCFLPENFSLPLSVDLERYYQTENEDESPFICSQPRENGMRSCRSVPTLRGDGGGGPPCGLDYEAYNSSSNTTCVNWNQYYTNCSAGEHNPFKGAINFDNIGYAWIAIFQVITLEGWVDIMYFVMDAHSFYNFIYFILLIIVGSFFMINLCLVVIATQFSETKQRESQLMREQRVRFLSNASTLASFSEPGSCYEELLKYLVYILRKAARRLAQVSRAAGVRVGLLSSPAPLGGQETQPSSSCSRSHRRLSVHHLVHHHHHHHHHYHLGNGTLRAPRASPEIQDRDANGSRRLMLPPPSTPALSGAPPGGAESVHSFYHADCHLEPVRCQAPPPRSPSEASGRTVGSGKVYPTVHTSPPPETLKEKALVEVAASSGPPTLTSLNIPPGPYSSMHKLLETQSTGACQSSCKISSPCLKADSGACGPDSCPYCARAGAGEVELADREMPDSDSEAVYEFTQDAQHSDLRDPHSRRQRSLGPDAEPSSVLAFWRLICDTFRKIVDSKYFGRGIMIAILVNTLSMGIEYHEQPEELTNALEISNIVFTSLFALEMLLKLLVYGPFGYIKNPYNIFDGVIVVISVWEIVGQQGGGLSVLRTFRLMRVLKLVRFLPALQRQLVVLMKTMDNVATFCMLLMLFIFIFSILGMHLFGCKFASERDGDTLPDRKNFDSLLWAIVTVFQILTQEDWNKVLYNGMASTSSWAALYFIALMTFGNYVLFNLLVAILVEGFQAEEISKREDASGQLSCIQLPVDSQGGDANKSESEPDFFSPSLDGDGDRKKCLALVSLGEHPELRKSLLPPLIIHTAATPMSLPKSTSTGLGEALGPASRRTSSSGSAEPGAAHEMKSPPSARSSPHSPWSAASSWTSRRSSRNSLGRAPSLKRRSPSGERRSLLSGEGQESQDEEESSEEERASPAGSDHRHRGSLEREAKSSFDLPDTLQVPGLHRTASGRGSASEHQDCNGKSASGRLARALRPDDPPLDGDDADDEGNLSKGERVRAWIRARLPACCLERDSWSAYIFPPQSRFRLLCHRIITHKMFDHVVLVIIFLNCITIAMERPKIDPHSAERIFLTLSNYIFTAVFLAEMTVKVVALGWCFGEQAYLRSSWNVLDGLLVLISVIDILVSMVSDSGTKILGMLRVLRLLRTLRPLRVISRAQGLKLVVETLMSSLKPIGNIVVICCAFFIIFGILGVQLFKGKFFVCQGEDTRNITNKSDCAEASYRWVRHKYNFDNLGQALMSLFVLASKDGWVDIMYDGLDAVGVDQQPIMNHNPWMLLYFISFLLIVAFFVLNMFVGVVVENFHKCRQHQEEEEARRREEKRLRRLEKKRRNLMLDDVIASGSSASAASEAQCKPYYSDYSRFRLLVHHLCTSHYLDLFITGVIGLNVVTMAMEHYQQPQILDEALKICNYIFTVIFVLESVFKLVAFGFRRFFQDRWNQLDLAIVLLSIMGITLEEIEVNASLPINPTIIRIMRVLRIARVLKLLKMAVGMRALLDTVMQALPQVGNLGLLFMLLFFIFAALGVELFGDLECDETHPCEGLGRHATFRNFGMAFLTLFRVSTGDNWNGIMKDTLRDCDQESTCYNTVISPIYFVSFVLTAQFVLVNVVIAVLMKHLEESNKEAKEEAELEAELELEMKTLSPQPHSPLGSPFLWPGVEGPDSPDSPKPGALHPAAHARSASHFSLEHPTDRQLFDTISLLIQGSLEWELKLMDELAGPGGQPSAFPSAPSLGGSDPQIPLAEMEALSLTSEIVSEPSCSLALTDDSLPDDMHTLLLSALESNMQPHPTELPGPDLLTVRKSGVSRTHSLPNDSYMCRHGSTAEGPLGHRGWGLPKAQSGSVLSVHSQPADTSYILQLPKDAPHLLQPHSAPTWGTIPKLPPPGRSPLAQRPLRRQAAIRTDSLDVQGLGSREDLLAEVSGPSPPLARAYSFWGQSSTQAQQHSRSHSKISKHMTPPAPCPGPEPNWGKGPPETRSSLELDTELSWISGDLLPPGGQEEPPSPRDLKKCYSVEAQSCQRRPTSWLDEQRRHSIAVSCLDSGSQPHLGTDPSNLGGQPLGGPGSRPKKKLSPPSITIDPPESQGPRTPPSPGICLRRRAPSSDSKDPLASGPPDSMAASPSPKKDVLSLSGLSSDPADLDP
The IC50 is the concentration needed to halve the response being measured. On to `CC(C)(C)OC(=O)NCCN1CCC(CNC(=O)c2ccccc2OC(F)(F)F)CC1` [Compound 55, tert-butyl 2-(4-((2-(trifluoromethoxy)benzamido)methyl)piperidin-1-yl)ethylcarbamate], for which the IC50 is more than 10 µM. Take `Cc1cc(F)cc(C(=O)NCC2CCN(CCNC(=O)C3CCCC3)CC2)c1` [Compound 393, N-((1-(2-(cyclopentanecarboxamido)ethyl)piperidin-4-yl)methyl)-3-fluoro-5-methylbenzamide]: the IC50 was determined as 6.04 µM.

As for `CCC(O)(C(=O)N1CCC(CNC(=O)c2cc(C(F)(F)F)cc(C(F)(F)F)c2)CC1)C(C)(C)C` (centres unmarked) [Compound 90, N-((1-(2-ethyl-2-hydroxy-3,3-dimethylbutanoyl)piperidin-4-yl)methyl)-3,5-bis(trifluoromethyl)benzamide], the IC50 came out at 4.27 µM. The same measure for `CC(C)S(=O)(=O)NC(CN1CCC(CC(=O)NCCc2c[nH]c3ccc(F)cc23)CC1)C(C)(C)C` (centres unmarked) [Compound 206, 2-(1-(3,3-dimethyl-2-(1-methylethylsulfonamido)butyl)piperidin-4-yl)-N-(2-(5-fluoro-1H-3-yl)ethyl)acetamide]: more than 10 µM. Turning to `CC(C)(C)C(CN1CCC(CC(=O)NCc2cc(Cl)cc(Cl)c2)CC1)NS(=O)(=O)C1CC1` (centres unmarked) [Compound 209, 2-(1-(2-(cyclopropanesulfonamido)-3,3-dimethylbutyl)piperidin-4-yl)-N-(3,5-dichlorobenzyl)acetamide], the IC50 is 8.6 µM. As to `O=C(NCC1CCN(CCNC(=O)C2CCCC2)CC1)c1cc(F)cc(Cl)c1` [Compound 397, 3-chloro-N-((1-(2-(cyclopentanecarboxamido)ethyl)piperidin-4-yl)methyl)-5-fluoro-benzamide], the IC50 is 1.78 µM. The same measure for `CN(CC1CCN(CCNC(=O)C(C)(C)C)CC1)C(=O)c1cc(F)cc(C(F)(F)F)c1` [Compound 412, 3-fluoro-N-methyl-N-((1-(2-pivalamidoethyl)piperidin-4-yl)methyl)-5-(trifluoromethyl)benzamide]: more than 10 µM. The same measure for `O=C(NCC1CCN(CCNC(=O)C2CCCC2)CC1)c1cc(F)cc(C(F)(F)F)c1` [Compound 402, N-((1-(2-(cyclopentanecarboxamido)ethyl)piperidin-4-yl)methyl)-3-fluoro-5-(trifluoromethyl)benzamide]: 0.54 µM; for `O=C(NCC1CCN(C[C@@H]2CCCN2S(=O)(=O)C2CCC2)CC1)c1cc(F)cc(C(F)(F)F)c1` [Compound 419, (S)-N-((1-((1-(cyclobutylsulfonyl)pyrrolidin-2-yl)methyl)piperidin-4-yl)methyl)-3-fluoro-5-(trifluoromethyl)benzamide]: 1.63 µM. Next, `CC(C)(C)NC(=O)N1CCC[C@H]1CN1CCC(CNC(=O)c2cc(F)cc(C(F)(F)F)c2)CC1` [Compound 410, (S)-N-tert-butyl-2-((4-((3-fluoro-5-(trifluoromethyl)benzamido)methyl)piperidin-1-yl)methyl)pyrrolidine-1-carboxamide]: 1.15 µM; `CC(C)(C)NC(=O)CN1CCC(CNC(=O)c2cc(Br)cc(OC(F)(F)F)c2)CC1` [Compound 429, 3-bromo-N-((1-(2-(tert-butylamino)-2-oxoethyl)piperidin-4-yl)methyl)-5-(trifluoromethoxy)benzamide]: less than 0.3 µM; `CC(C)(C)OC(=O)NCCN1CCC(CNC(=O)c2cccc(OC(C)(C)C)c2)CC1` [Compound 50, tert-butyl 2-(4-((3-tert-butoxybenzamido)methyl)piperidin-1-yl)ethylcarbamate]: 8.97 µM. Regarding `CC(C)(C)C(O)CN1CCC(CC(=O)NCCc2ccc(F)cc2)CC1` (centres unmarked) [Compound 177, N-(4-fluorophenethyl)-2-(1-(2-hydroxy-3,3-dimethylbuyl)piperidin-4-yl)acetamide], the IC50 is more than 10 µM.

`O=C(CC1CCN(C(=O)[C@H]2CCCN2)CC1)Nc1cc(C(F)(F)F)cc(C(F)(F)F)c1` [Compound 191, (R)-N-(3,5-bis(trifluoromethyl)phenyl)-2-(1-(pyrrolidine-2-carbonyl)piperidin-4-yl)acetamide]: the IC50 is more than 10 µM.

Turning to `CC(C)(C)NC(=O)CN1CCC(CNC(=O)C2(c3ccccc3)CCCC2)CC1` [Compound 432, N-((1-(2-(tert-butylamino)-2-oxoethyl)piperidin-4-yl)methyl)-1-phenylcyclopentanecarboxamide], the IC50 is less than 0.3 µM. Next, `O=C(NCC1CCN(CCNC(=O)C2CCCC2)CC1)c1cccc(C(F)(F)F)c1` [Compound 398, N-((1-(2-(cyclopentanecarboxamido)ethyl)piperidin-4-yl)methyl)-3-(trifluoromethyl)benzamide]: 3.53 µM; `CC(C)(C)C(N)CN1CCC(CC(=O)NCc2cc(Cl)cc(Cl)c2)CC1` (centres unmarked) [Compound 201, 2-(1-(2-amino-3,3-dimethylbutyl)piperidin-4-yl)-N-(3,5-dichlorobenzyl) acetamide]: more than 10 µM; `O=C(NCC1CCN(C[C@@H]2CCCN2C(=O)C2CCCC2)CC1)c1cc(F)cc(C(F)(F)F)c1` [Compound 425, (S)-N-((1-((1-(cyclopentanecarbonyl)pyrrolidin-2-yl)methyl)piperidin-4-yl)methyl)-3-fluoro-5-(trifluoromethyl)benzamide]: less than 0.3 µM. As to `O=C(NCC1CCN(C[C@@H]2CCCN2S(=O)(=O)CCC(F)(F)F)CC1)c1cc(F)cc(C(F)(F)F)c1` [Compound 422, (S)-3-fluoro-5-(trifluoromethyl)-N-((1-((1-(3,3,3-trifluoropropyl-sulfonyl)pyrrolidin-2-yl)methyl)piperidin-4-yl)methyl) benzamide], the IC50 stood at 1.93 µM. With `CCS(=O)(=O)NC(CN1CCC(CC(=O)NC(c2cccc(F)c2)c2cccc(F)c2)CC1)C(C)(C)C` (centres unmarked) [Compound 220, N-(bis(3-fluorophenyl)methyl)-2-(1-(2-(ethylsulfonamido)-3,3-dimethylbutyl)piperidin-4-yl)acetamide], the IC50 came out at 6.91 µM. Next, `CCS(=O)(=O)N1CCC[C@H]1CN1CCC(CNC(=O)c2cc(F)cc(C(F)(F)F)c2)CC1` [Compound 417]: 9.49 µM. The same measure for `O=C(NCC1CCN(CCNS(=O)(=O)C2CC2)CC1)c1cc(F)cc(Cl)c1` [Compound 390, 3-chloro-N-((1-(2-(cyclopropanesulfonamido)ethyl)piperidin-4-yl)methyl)-5-fluoro-benzamide]: less than 0.3 µM; for `O=C(NCC1CCN(CCNC(=O)C2CCCC2)CC1)c1cccc(Cl)c1` [Compound 394, 3-chloro-N-((1-(2-(cyclopentanecarboxamido)ethyl)piperidin-4-yl)methyl)benzamide]: 4.61 µM; for `CC(C)(C)OC(=O)NCCN1CCC(CNC(=O)c2ccc(F)cc2F)CC1` [Compound 51, tert-butyl 2-(4-((2,4-difluorobenzamido)methyl)piperidin-1-yl)ethylcarbamate]: more than 10 µM.

Turning to `O=C(NCC1CCN(CCNC(=O)C2CCCC2)CC1)c1cc(Br)cc(Br)c1` [Compound 409, 3,5-dibromo-N-((1-(2-(cyclopentanecarboxamido)ethyl)piperidin-4-yl)methyl)benzamide], the IC50 is less than 0.3 µM. Next, `O=C(Cc1cc(C(F)(F)F)cc(C(F)(F)F)c1)NCC1CCN(CCNC(=O)C2CCCC2)CC1` [Compound 408, N-(2-(4-((2-(3,5-bis(trifluoromethyl)phenyl)acetamido)methyl)piperidin-1-yl)ethyl)cyclopentanecarboxamide]: 3.36 µM.

The record behind these values is patent US8569344B2, “N-piperidinyl acetamide derivatives as calcium channel blockers” (Zalicus Pharmaceuticals Ltd., priority 2008, dated 2013).
